“And” between values parts separate entries of the source, which are not always exact repeats. Identical values can stand only once. Toxic doses and inconclusive results are not listed. How the source made its calls: active means survival T/C of 150% or more; inactive means T/C below 125% in these data.
System: P388 leukemia ip, CD2F1 mice, survival T/C
Assay: NCI In Vivo Anticancer Drug Screen. Data for tumor model P388 Leukemia (intraperitoneal) in CD2F1 (CDF1) mice
Settings: endpoint: median survival time, higher = longer survival
Procedure, shortened: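 Mice carrying the transplanted tumor received test compound or vehicle. Survival was recorded in each group, and the value is the treated-group measurement divided by that of the vehicle-treated control group.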

[1] = dose: 100.0 mg/kg/injection, schedule: Q04DX003 (ip), vehicle: saline with Tween-80
[2] = dose: 100.0 mg/kg/injection, schedule: Q04DX003 (ip), vehicle: saline
[3] = dose: 200.0 mg/kg/injection, schedule: Q04DX003 (ip), vehicle: saline with Tween-80
[4] = dose: 200.0 mg/kg/injection, schedule: Q04DX003 (ip), vehicle: saline
[5] = dose: 400.0 mg/kg/injection, schedule: Q04DX003 (ip), vehicle: saline with Tween-80
[6] = dose: 50.0 mg/kg/injection, schedule: Q01DX009 (ip), vehicle: saline with Tween-80
[7] = dose: 100.0 mg/kg/injection, schedule: Q01DX009 (ip), vehicle: saline with Tween-80
[8] = dose: 200.0 mg/kg/injection, schedule: Q01DX009 (ip), vehicle: saline with Tween-80
[9] = dose: 50.0 mg/kg/injection, schedule: Q01DX005 (ip), vehicle: saline with Tween-80
[10] = dose: 100.0 mg/kg/injection, schedule: Q01DX005 (ip), vehicle: saline with Tween-80
[11] = dose: 200.0 mg/kg/injection, schedule: Q01DX005 (ip), vehicle: saline with Tween-80
[12] = dose: 100.0 mg/kg/injection, schedule: Q04DX003 (ip), vehicle: Klucel (hydroxypropylcellulose) (HPC)
[13] = dose: 200.0 mg/kg/injection, schedule: Q04DX003 (ip), vehicle: Klucel (hydroxypropylcellulose) (HPC)

Measured: T/C

CCC(=O)c1cc(-c2cc(C(=O)CC)[nH]n2)n[nH]1
inactive: dose: 60.0 mg/kg/injection, schedule: Q01DX005 (ip), vehicle: Klucel (hydroxypropylcellulose) (HPC) 98 % of control | dose: 120.0 mg/kg/injection, schedule: Q01DX005 (ip), vehicle: Klucel (hydroxypropylcellulose) (HPC) 98 % of control

Cc1ccc(S(=O)(=O)C[n+]2ccc3ccccc3c2)cc1
inactive: [1] 98 % of control | [2] 114 % of control and 118 % of control | [3] 105 % of control | [4] 117 % of control | [5] 100 % of control

CCOP(=O)(CC(=O)NCc1cc(C(C)(C)C)c(O)c(C(C)(C)C)c1)OCC
inactive: [6] 100 % of control | [7] 93 % of control | [8] 96 % of control

O=[N+]([O-])c1csc([N+](=O)[O-])c1
inactive: dose: 9.37 mg/kg/injection, schedule: Q01DX009 (ip), vehicle: saline with Tween-80 109 % of control | dose: 18.75 mg/kg/injection, schedule: Q01DX009 (ip), vehicle: saline with Tween-80 118 % of control | dose: 37.5 mg/kg/injection, schedule: Q01DX009 (ip), vehicle: saline with Tween-80 122 % of control | dose: 75.0 mg/kg/injection, schedule: Q04DX003 (ip), vehicle: saline with Tween-80 100 % of control | dose: 150.0 mg/kg/injection, schedule: Q04DX003 (ip), vehicle: saline with Tween-80 100 % of control | dose: 300.0 mg/kg/injection, schedule: Q04DX003 (ip), vehicle: saline with Tween-80 109 % of control

CCCCCCN(CCCCCC)CC(O)c1cc(-c2ccccc2)nc2ccccc12 (stereo not drawn)
inactive: [9] 100 % of control | [10] 103 % of control | [11] 105 % of control

C[n+]1c(-c2cccc(OCCOCCOCCOc3cccc(-c4c5cc(N)ccc5c5ccc(N)cc5[n+]4C)c3)c2)c2cc(N)ccc2c2ccc(N)cc21
inactive: dose: 0.39 mg/kg/injection, schedule: Q01DX009 (ip), vehicle: water 111 % of control | dose: 0.78 mg/kg/injection, schedule: Q01DX009 (ip), vehicle: water 104 % of control

COc1ccc(N=Cc2ccccc2P(c2ccccc2)c2ccccc2)cc1
inactive: dose: 50.0 mg/kg/injection, schedule: Q01DX009 (ip), vehicle: Klucel (hydroxypropylcellulose) (HPC) 101 % of control | dose: 100.0 mg/kg/injection, schedule: Q01DX009 (ip), vehicle: Klucel (hydroxypropylcellulose) (HPC) 100 % of control | dose: 200.0 mg/kg/injection, schedule: Q01DX009 (ip), vehicle: Klucel (hydroxypropylcellulose) (HPC) 100 % of control

Cc1c2cc[n+](C)cc2c(C)c2c1[nH]c1ccccc12
inactive: dose: 1.25 mg/kg/injection, schedule: Q04DX002 (ip), vehicle: water 103 % of control and 117 % of control | dose: 2.5 mg/kg/injection, schedule: Q04DX002 (ip), vehicle: water 114 % of control and 121 % of control | dose: 12.5 mg/kg/injection, schedule: Q04DX002 (ip), vehicle: distilled water + Tween-80 122 % of control

CC(C)(C)C(O)c1cccnc1 (stereo not drawn)
inactive: [1] 110 % of control | [3] 101 % of control

Cc1nc(C(N)=O)c(=O)[nH]c1C
inactive: dose: 33.0 mg/kg/injection, schedule: Q04DX003 (ip), vehicle: saline 100 % of control | dose: 50.0 mg/kg/injection, schedule: Q04DX003 (ip), vehicle: saline 100 % of control | dose: 75.0 mg/kg/injection, schedule: Q04DX003 (ip), vehicle: saline 100 % of control | [1] 100 % of control | [3] 106 % of control | [5] 106 % of control

C1CCCCCC2OC2CCCC1 (stereo not drawn)
inactive: dose: 50.0 mg/kg/injection, schedule: Q04DX003 (ip), vehicle: Klucel (hydroxypropylcellulose) (HPC) 107 % of control | [12] 112 % of control | [13] 107 % of control

CN(C)C1(c2ccccc2)CS(=O)(=O)C1
inactive: [6] 96 % of control | [7] 96 % of control | [8] 94 % of control

COC(=O)[C@@]12OC[C@]34[C@H]([C@@H](O)[C@@H]1O)[C@@]1(C)C=C(OC5OC(CO)C(O)C(O)C5O)C(=O)C(C)[C@@H]1C[C@H]3OC(=O)[C@H](OC(=O)C=C(C)C)[C@@H]24 (stereo partly drawn)
inactive: dose: 0.25 mg/kg/injection, schedule: Q01DX009 (ip), vehicle: saline + alcohol 107 % of control | dose: 0.5 mg/kg/injection, schedule: Q01DX009 (ip), vehicle: saline + alcohol 112 % of control | dose: 1.0 mg/kg/injection, schedule: Q01DX009 (ip), vehicle: saline + alcohol 112 % of control | dose: 2.0 mg/kg/injection, schedule: Q01DX009 (ip), vehicle: saline + alcohol 106 % of control | dose: 4.0 mg/kg/injection, schedule: Q01DX009 (ip), vehicle: saline + alcohol 112 % of control | dose: 8.0 mg/kg/injection, schedule: Q01DX009 (ip), vehicle: saline + alcohol 111 % of control

Cc1ccc(S(=O)(=O)N(C)C=O)cc1
inactive: [6] 100 % of control | [7] 103 % of control | [8] 101 % of control

O=C(O)c1nn(Cc2ccc(Br)cc2Br)c2ccccc12
inactive: dose: 100.0 mg/kg/injection, schedule: Q01DX001 (ip), vehicle: saline with Tween-80 114 % of control | dose: 200.0 mg/kg/injection, schedule: Q01DX001 (ip), vehicle: saline with Tween-80 104 % of control | dose: 400.0 mg/kg/injection, schedule: Q01DX001 (ip), vehicle: saline with Tween-80 114 % of control

O=[N+]([O-])c1ccc2c(N=Nc3c(O)ccc4ccccc34)c(O)cc(S(=O)(=O)O)c2c1
inactive: [2] 100 % of control | dose: 132.0 mg/kg/injection, schedule: Q01DX009 (ip), vehicle: saline with Tween-80 109 % of control | [8] 109 % of control | [4] 100 % of control | dose: 300.0 mg/kg/injection, schedule: Q01DX009 (ip), vehicle: saline with Tween-80 113 % of control | dose: 400.0 mg/kg/injection, schedule: Q04DX003 (ip), vehicle: saline 111 % of control

CN(C)CCCN1C[C@H]2CC[C@@](C)(C1)C2(C)C
inactive: [9] 105 % of control | [10] 107 % of control | [11] 105 % of control

CC(C)(C)SC(=O)C1(C(OC(=O)c2ccccc2)c2ccccc2)CC1 (stereo not drawn)
inactive: [12] 96 % of control | [13] 100 % of control | dose: 400.0 mg/kg/injection, schedule: Q04DX003 (ip), vehicle: Klucel (hydroxypropylcellulose) (HPC) 89 % of control

CSC(=S)n1nc(-c2cccs2)c(N=Nc2ccccc2)c1C(F)(F)F
inactive: dose: 7.5 mg/kg/injection, schedule: Q01DX005 (ip), vehicle: saline with Tween-80 102 % of control | dose: 15.0 mg/kg/injection, schedule: Q01DX005 (ip), vehicle: saline with Tween-80 112 % of control | dose: 30.0 mg/kg/injection, schedule: Q01DX005 (ip), vehicle: saline with Tween-80 112 % of control

COC1=CC(=O)C(c2cc(OC(C)=O)c(OC)cc2OC(C)=O)=CC1=O
inactive: dose: 6.0 mg/kg/injection, schedule: Q01DX005 (ip), vehicle: saline + Tween-80 + alcohol 108 % of control | dose: 12.0 mg/kg/injection, schedule: Q01DX005 (ip), vehicle: saline + Tween-80 + alcohol 100 % of control | dose: 25.0 mg/kg/injection, schedule: Q01DX005 (ip), vehicle: saline + Tween-80 + alcohol 105 % of control

C=C1C(=O)OC2/C=C(\C)C(O)CC(O)C(C)(O)CC(OC(=O)/C(C)=C/C)C12 (stereo not drawn)
inactive: dose: 10.0 mg/kg/injection, schedule: Q01DX009 (ip), vehicle: saline with Tween-80 102 % of control | dose: 20.0 mg/kg/injection, schedule: Q01DX009 (ip), vehicle: saline with Tween-80 100 % of control and 119 % of control and 97 % of control | dose: 40.0 mg/kg/injection, schedule: Q01DX009 (ip), vehicle: saline with Tween-80 101 % of control and 113 % of control and 123 % of control | dose: 80.0 mg/kg/injection, schedule: Q01DX009 (ip), vehicle: saline with Tween-80 113 % of control and 115 % of control

COc1cc(/C=N/NC(=O)C(N)Cc2ccc(O)cc2)ccc1O (stereo not drawn)
inactive: [9] 100 % of control | [10] 94 % of control | [11] 103 % of control

Reference: PubChem BioAssay AID330 (DTP/NCI, 2004)
